Source: patent US7538220B2, “Intermediates in the preparation of homocamptothecin analogs” (University of Pittsburgh - of the Commonwealth System of …, priority 1999, dated 2009)
Several values for one entry are separate records, joined by “and”; a condition that tells them apart may be missing. Equal entries are not always repeated. Where two headings read alike, the source gives them in different places.

Assays:
[1] = Lactone ring stability in whole human blood by HPLC; conditions: for Percent Lactone in Human Blood after 3 Hours of Incubation: pH 7.4, 37° C. (Table 4)
Protocol: All experiments were conducted at pH 7.4 and 37° C.
(§1) HPLC solvents were from Fisher Scientific.

[2] = cited from earlier work
[3] = Lactone ring stability in mouse blood by HPLC; conditions: for Ratio of Lactone Level Mouse/Human: blood, 3 hours of incubation; for Percent Lactone in Mouse Blood after 3 Hours of Incubation: pH 7.4, 37° C.
Protocol: The hydrolysis kinetics of camptothecins in the presence of different blood components were determined by a quantitative C18 reversed-phase high-performance liquid chromatography (HPLC) assay modified from methodologies described previously in the literature cited above. The preparation of whole blood and fractionated blood samples was carried out as described previously. Crystallized HSA of high purity (>97%) from Sigma Chemical (St. Louis, Mo.) was used. HSA stock solutions were prepared in PBS buffer with a final pH of 7.40±0.05. HSA concentrations were determined by UV absorbance at 278 nm using an extinction coefficient of 39,800 M^−1 cm^−1 (Porter, 1992). All other agents were reagent grade and were used without further purification. High purity water provided by a Milli-Q UV PLUS purification system (Bedford, Mass.) was utilized in all experiments. HPLC solvents were from Fisher Scientific. Human plasma and red blood cells were obtained from Central Kentucky Blood Center. […] Blood from mice was collected in heparinized tubes and stored at 5-10° C. until use.
HPLC assays were performed either on a Waters Alliance 2690 HPLC system equipped with a temperature-controlled autosampler and Waters 474 scanning fluorescence detector. A second HPLC system was composed of a Waters HPLC system composed of 501 HPLC pumps, 717 Plus temperature-controlled autosampler and 470 scanning fluorescence detector. The HPLC assay procedures used for the homosilatecans are summarized below. Solvent A consisted of acetonitrile and Solvent B was 2% triethylammonium acetate, pH 5.5, with a flow rate of 1 ml/min. For DB-38 an isocratic elution was used: 33% Solvent A; 67% Solvent B; λex:345 nm and λem:518 nm. For DB-81 an isocratic elution was used: 56% Solvent A; 44% Solvent B; and λex:375 nm and λem:444 nm. For DB-90 an isocratic elution was used: 41% Solvent A; 59% Solvent B; λex:412 nm and λem:526 nm. For DB-91 an isocratic elution of 42% Solvent A, 58% Solvent B, and λex:392 nm and λem:562 nm.
To determine drug stability in whole blood, whole blood was incubated at 37° C. for 30 min and pH determined. Blood pH was adjusted to 7.4+/−0.5 using either 0.1 M KOH or 0.1 M HCl. Blood samples were incubated at 37° C. for 30 min and pH remeasured to ensure that it is within the range before an individual assay was started. Aliquots of blood (2 ml each) were removed and placed in three disposable glass test tubes and the tubes were incubated at 37° C. […] Incubation at 37° C. was continued and 150 μl aliquots were removed at different time points and added to 600 μl of cold methanol (−20° C.) in an eppendorf tube. The tube was then vortexed for 10 sec and centrifuged in a table top microcentrifuge at 8000 rpm for 45 sec. The Supernatant was removed and placed in an autosampler vial and the vial quickly added to the autosampler maintained at 4° C. The sample was analyzed immediately on the HPLC set-up. The data analysis was as described for the drug in PBS only samples.

[4] = PBS solution containing HSA; cited from earlier work
[5] = whole human blood; cited from earlier work
[6] = Fluorescence anisotropy titration, equilibrium binding to DMPG small unilamellar vesicles; assay type: physicochemical; conditions: negatively charged DMPG vesicles, PBS pH 7.4, 37° C.; K values subject to 10% uncertainty
Protocol: (§2) As a consequence of the brilliant fluorescence emissions from the newly synthesized homosilatecans (a summary of the spectral parameters can be found in Table 1), the lipid bilayer adsorption isotherms summarized in FIG. 4 were relatively free from any background signal. The method of fluorescence anisotropy titration was used to construct the adsorption isotherms. The experiments were conducted at drug concentrations of 1 μM in PBS buffer (37° C.). […] Because of the potential of the lactone ring of the homosilatecans and camptothecins to hydrolyze in PBS, anisotropy values at each lipid concentration were determined immediately (approx. 1 min.) following the addition of the lactone form of each agent to the liposome suspension as to minimize any possibility of conversion to the carboxylate form. Using drug concentrations of 1 μM and long pass filters to isolate emitted light from background signal (that is, scattered exciting light and extraneous fluorescence signal resulting from the possible presence of impurities), signal levels from drugs dissolved in PBS buffer were typically 99.97% in the absence of membrane and greater than 98% in the presence of membrane. Adsorption isotherms were used to determine overall association constants for the homosilatecan, silatecan, and camptothecin drugs. Overall association constants are defined as: K=[AB]/[AF][L] where [AB] represents the concentration of bound drug, [AF] represents the concentration of free drug, and [L] represents the total lipid concentration in the vesicle suspension. This equation is valid when the concentration of free lipid is approximately equal to the concentration of total lipid (that is, the concentration of free lipid is in significant excess over the concentration of bound drug). Provided this condition is satisfied, K may be determined from the inverse of the slope of a double reciprocal plot. In such a double reciprocal plot, 1/fraction of the total drug bound is plotted vs. 1/lipid concentration, with a y-intercept value of 1 (for a system displaying binding site homogeneity). Such double-reciprocal plots for the associations of the new homosilatecans analogs (both lactone and carboxylate forms) with DMPC and DMPG small unilamellar vesicle (SUV) preparations were linear with good correlation coefficients.
(§3) The studies summarized in Table 2 examine the structural basis of homosilatecan associations for lipid bilayers. Two types of membranes were included in these studies which were conducted under near physiological conditions of pH and temperature; these membranes include fluid-phase and electroneutral L-α-dimyristoylphosphatidyl-choline (DMPC); and fluid-phase and negatively-charged L-α-dimyristoylphosphatidylglycerol (DMPG). DMPC and DMPG have identical chain length but the charges on their head groups differ.
(§4) In the studies of Table 2, binding isotherms were constructed using the method of fluorescence anisotropy titration as discussed above, and K values were determined from the slopes of the double-reciprocal plots. The K values are subject to 10% uncertainty. One of the most striking features of the data contained in Table 2 is the strong modulation which can be achieved through the creation of A,B,E-ring modified camptothecins (for example, the homosilatecans known as DB-38, DB-90, and DB-91) or B,E-ring modified camptothecins (for example, the homosilatecan known as DB-81). Homosilatecans containing either a sole substitution at the 7 position or dual substitution at the 7 and 10 positions have been created and found to display very high lipophilicities. Included in Table 2 are camptothecin compounds (topotecan and camptothecin). For DB-81, the lipophilicity for DMPC membranes relative to corresponding value for topotecan increases over 1,400-fold. Data for these agents were included to show the highly lipophilic nature of the new homocamptothecins relative to compounds such as topotecan and camptothecin. […]

[7] = tested on: MDA-MB-435 tumorigenic metastatic human breast cancer cells; experiment: Cytotoxicity, sulphorrhodamine B (SRB) assay; assay type: cell-based; conditions: MDA-MB-435, 72 hr exposure, SRB assay, without HSA, read-out: IC50 (w/o HSA)
Protocol: Cytotoxicity measurements were conducted using MDA-MB-435 tumorigenic human breast cancer cells. The cells were exposed to a range of drug concentrations for 72 hr exposure periods and then viability was assessed using a sulphorrhodamine B (SRB) assay. The SRB measures the total protein levels in the living cells. Proteins from dead cells are lysed and removed in the washing step before TCA fixation. However, it is possible that cells in the early stage of death still have their membrane integrity and therefore retain the protein contents inside. As a result, the optical density at 490 nm can sometimes be overestimated and the cytotoxicity underestimated. […] The SRB assay is now a well regarded assay and was recently approved by NCl as a standard assay for anticancer drug screening. […] Each IC50 value represents the average of three separate trials with each dosage level studied in triplicate.

[8] = target: T1, human serum albumin (HSA) (Homo sapiens, UniProt P02768); experiment: Binding of camptothecin lactone and carboxylate forms to human serum albumin, frequency-domain fluorescence lifetime spectroscopy
[9] = Lactone ring stability in PBS by HPLC; assay type: physicochemical; conditions: PBS pH 7.4, 3 hours, 37° C., 1 μM
Protocol: FIG. 12 contrasts the improved stabilities of four novel homosilatecans of the present invention with their corresponding silatecan structure containing the α-hydroxylactone functionality. All the experiments of FIG. 12 were conducted in PBS at 37° C.
as §1
To determine the stabilities of homosilatecans in PBS, an aliquot of each of the homosilatecans in DMSO was added to phosphate buffered saline (PBS), pH 7.4 in a HPLC autosampler vial maintained at 37° C. in a water bath to result in final drug concentration of 1 μM. The drug-containing vial was quickly transferred to the autosampler maintained at 37° C. and aliquots analyzed at various time points. All the determinations were done in triplicate. The data was collected and analyzed using Waters Millenium software. The fraction of lactone was calculated using the peak area of lactone and carboxylate peak and using the lactone/carboxylate ratio.

[10] = previously observed, Burke et al. 1993; cited from earlier work
[11] = target: T1, human serum albumin (HSA); conditions: PBS pH 7.4; cited from earlier work
[12] = Fluorescence anisotropy titration, equilibrium binding to DMPC small unilamellar vesicles; assay type: physicochemical; conditions: electroneutral DMPC vesicles, PBS pH 7.4, 37° C.; K values subject to 10% uncertainty
Protocol: as §2, §3, §4

[13] = whole human blood, 3 hours incubation, pH 7.4, 37° C., 1 μM

T1 sequence (P02768 25-609): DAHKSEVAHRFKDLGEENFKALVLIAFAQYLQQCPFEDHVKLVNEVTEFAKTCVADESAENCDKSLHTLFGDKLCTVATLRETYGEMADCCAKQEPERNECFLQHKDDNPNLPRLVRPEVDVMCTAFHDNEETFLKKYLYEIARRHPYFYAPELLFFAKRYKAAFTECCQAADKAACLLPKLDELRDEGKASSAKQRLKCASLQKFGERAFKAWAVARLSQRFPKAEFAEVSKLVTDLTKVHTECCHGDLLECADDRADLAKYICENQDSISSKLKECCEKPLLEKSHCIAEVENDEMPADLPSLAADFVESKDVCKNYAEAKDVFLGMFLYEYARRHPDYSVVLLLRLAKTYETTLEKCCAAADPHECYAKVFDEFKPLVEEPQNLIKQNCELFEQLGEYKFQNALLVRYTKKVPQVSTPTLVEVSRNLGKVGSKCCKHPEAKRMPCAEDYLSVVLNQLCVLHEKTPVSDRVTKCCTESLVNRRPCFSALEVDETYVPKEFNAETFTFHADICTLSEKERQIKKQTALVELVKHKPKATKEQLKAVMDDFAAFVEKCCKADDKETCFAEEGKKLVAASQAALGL

CC[C@@]1(O)C(=O)OCc2c1cc1n(c2=O)Cc2cc3c(N)cccc3nc2-1 [9-Aminocamptothecin, 9-aminocamptothecin]
Percent Lactone in Human Blood after 3 Hours of Incubation [1]: 0.4% | % Lactone [1, 13]: approx. 0.3% | percentage of lactone at equilibrium ([2]; human plasma, pH 7.4, 37° C.): 0.2% | fraction converted to carboxylate ([2]; plasma): > 99.5% | Ratio of Lactone Level Mouse/Human [3]: 100 | Percent Lactone in Mouse Blood after 3 Hours of Incubation [3]: 38% | extent of hydrolysis [4]: > 99%

CCc1c2c(nc3ccc(OC(=O)N4CCC(N5CCCCC5)CC4)cc13)-c1cc3c(c(=O)n1C2)COC(=O)[C@]3(O)CC [CPT-11]
lactone level at equilibrium relative to 9-aminocamptothecin ([1]; whole human blood): approximately 40 fold | % Lactone [1, 13]: approx. 21.0% | percentage of lactone at equilibrium [5]: 21.0%

CC[C@@]1(O)C(=O)OCc2c1cc1n(c2=O)Cc2cc3ccccc3nc2-1 [Camptothecin]
KDMPG overall association constant [6]: 100 M⁻¹ | IC50 [7]: 12 ± 4 nM | HSA binding preference for the carboxylate relative to the lactone [8]: 200 fold | K, HSA binding of the carboxylate form ([8]; carboxylate form): 1.2e+06 M⁻¹ | K, HSA binding of the lactone form ([8]; lactone form): ≈ 5.5×10^3 M^−1 | Percent Lactone in Human Blood after 3 Hours of Incubation [1]: 7% | lactone level at equilibrium relative to 9-aminocamptothecin ([1]; whole human blood): approximately 10 fold | % Lactone [1, 13]: approx. 6% | % Lactone [9]: approximately 12% | percentage of lactone at equilibrium ([2]; human plasma, pH 7.4, 37° C.): 0.2% | t1/2 of lactone ring opening ([2]; human plasma, pH 7.4, 37° C.): 11 min | decrease in affinity for DMPC upon opening of the lactone ring [10]: 3 fold | HSA binding affinity of carboxylate form relative to lactone form [11]: 200 fold and > 100 fold | Ratio of Lactone Level Mouse/Human [3]: 3 | Percent Lactone in Mouse Blood after 3 Hours of Incubation [3]: 20% | t1/2 of lactone ring opening [5]: 22 min | KDMPC overall association constant [12]: 100 M⁻¹

CC[C@@]1(O)C(=O)OCc2c1cc1n(c2=O)Cc2c-1nc1ccc(O)cc1c2[Si](C)(C)C(C)(C)C [DB-67, reference compound]
KDMPC overall association constant [12]: 2,500 M^−1

CCC(O)(CC(=O)O)c1cc2n(c(=O)c1CO)Cc1c-2nc2ccc(N)cc2c1[Si](C)(C)C(C)(C)C (stereo not drawn) [DB-90 carboxylate form, carboxylate form of 7-t-butyl-dimethylsilyl-10-aminohomocamptothecin]
KDMPG overall association constant [6]: 80 M⁻¹ | KDMPC overall association constant [12]: 770 M⁻¹

CCC(O)(CC(=O)O)c1cc2n(c(=O)c1CO)Cc1c-2nc2ccc(O)cc2c1[Si](C)(C)C(C)(C)C (stereo not drawn) [DB-91 carboxylate form, ring-opened or carboxylate form of 7-t-butyldimethylsilyl-10-hydroxyhomocamptothecin]
KDMPG overall association constant [6]: 100 M⁻¹ | KDMPC overall association constant [12]: 700 M⁻¹

CCc1c2c(nc3ccc(O)cc13)-c1cc3c(c(=O)n1C2)COC(=O)[C@]3(O)CC [SN-38, 7-ethyl-10-hydroxycamptothecin]
lactone level at equilibrium relative to 9-aminocamptothecin ([1]; whole human blood): approximately 40 fold | % Lactone [1, 13]: approx. 30% | percentage of lactone at equilibrium [5]: 19.5% | KDMPC overall association constant [12]: 300 M⁻¹

CC[C@@]1(O)C(=O)OCc2c1cc1n(c2=O)Cc2cc3c(CN(C)C)c(O)ccc3nc2-1 [Topotecan, reference compound]
KDMPG overall association constant [6]: 50 M⁻¹ | lactone level at equilibrium relative to 9-aminocamptothecin ([1]; male, human, 1 μM, pH 7.4): 20 fold | % Lactone ([1]; male, human, 3 h, 1 μM, pH 7.4): approx. 15% | % Lactone [9]: approximately 12% | percentage of lactone at equilibrium [5]: 11.9% | KDMPC overall association constant [12]: 10 M⁻¹
